This note sets out measurements from article PMC10616807, “3′-O-β-Glucosyl-4′,5′-didehydro-5′-deoxyadenosine Is a Natural Product of the Nucleocidin Producers Streptomyces virens and Streptomyces calvus” (Journal of Natural Products, 2023).

The Km is the substrate concentration at which the rate is half of its maximum.

The structures appear in SMILES notation.

This experiment concerns T1, NucGT.
T1 construct: glucosyltransferase enzyme
In words: HPLC product assay at […] nm, initial rates, Michaelis-Menten fit. Conditions: 17.7 mM UDP-glucose (saturating), 100 mM MgCl2, 50 mM Tris-HCl pH 7.8, 37 °C. The experiment is classed as biochemical, Streptomyces calvus.

`Nc1ncnc2c1ncn2[C@@H]1O[C@H](CO)[C@@H](O)[C@H]1O` [adenosine]: the Km was 487 ± 53 µM.

With `C=C1O[C@@H](n2cnc3c(N)ncnc32)[C@H](O)[C@@H]1O` [compound 12, 4′,5′-didehydro-5′-deoxyadenosine], the Km turned out to be 365 ± 6 µM.
